Measurements taken from US10703756B2, “Pyrrolo[2,3-D]pyrimidinyl, pyrrolo[2,3-B]pyrazinyl, pyrrolo[2,3-B]pyridinyl acrylamides and epoxides thereof” (Pfizer Inc., priority 2015, dated 2020).
Like-named read-outs stand apart in the source and are kept apart here.

What was measured:
[1] = Stability of JAK3 Covalent Inhibitors in Human Whole Blood; format: in vitro ADME; details: 1 μM test compound, 37° C., 180 min incubation; for half-life at 1 μM: both sexes, read-out: Human blood stability t1/2
Procedure: Stability of JAK3 Covalent Inhibitors in Rat and Human Whole Blood
Rat blood was collected from 3 male Sprague-Dawley rats (200-250 g, Charles River Laboratories) and pooled for each study. Human blood was collected from healthy subjects at the Occupational Health & Wellness Center at Pfizer, Groton, Conn. and pooled for each study. Both rat and human blood was collected freshly into K2-EDTA tubes and kept on ice. An aliquot of the blood was transferred to microtubes and pre-warmed for 10 min at 37° C. using a heat block. The test compound was then added (1 μM final concentration) and the incubation was continued for 180 min at 37° C. in duplicates. An aliquot of the incubation mixture was removed at designated time points during the course of the incubation, mixed with an aliquot of acetonitrile containing an internal standard, vortexed and centrifuged. The resulting supernatants were removed and subjected to LC-MS/MS analyses to determine parent compound concentrations. Peak area ratios of the parent compound vs the internal standard were used to determine the % of parent compound remaining vs incubation time.

JAK3 enzyme [2] = molecular target: T1, JAK3 enzyme (Homo sapiens, UniProt P52333); assay: JAK Caliper Enzyme Assay at 4 μM ATP; format: biochemical
T1 sequence (P52333 1-1124): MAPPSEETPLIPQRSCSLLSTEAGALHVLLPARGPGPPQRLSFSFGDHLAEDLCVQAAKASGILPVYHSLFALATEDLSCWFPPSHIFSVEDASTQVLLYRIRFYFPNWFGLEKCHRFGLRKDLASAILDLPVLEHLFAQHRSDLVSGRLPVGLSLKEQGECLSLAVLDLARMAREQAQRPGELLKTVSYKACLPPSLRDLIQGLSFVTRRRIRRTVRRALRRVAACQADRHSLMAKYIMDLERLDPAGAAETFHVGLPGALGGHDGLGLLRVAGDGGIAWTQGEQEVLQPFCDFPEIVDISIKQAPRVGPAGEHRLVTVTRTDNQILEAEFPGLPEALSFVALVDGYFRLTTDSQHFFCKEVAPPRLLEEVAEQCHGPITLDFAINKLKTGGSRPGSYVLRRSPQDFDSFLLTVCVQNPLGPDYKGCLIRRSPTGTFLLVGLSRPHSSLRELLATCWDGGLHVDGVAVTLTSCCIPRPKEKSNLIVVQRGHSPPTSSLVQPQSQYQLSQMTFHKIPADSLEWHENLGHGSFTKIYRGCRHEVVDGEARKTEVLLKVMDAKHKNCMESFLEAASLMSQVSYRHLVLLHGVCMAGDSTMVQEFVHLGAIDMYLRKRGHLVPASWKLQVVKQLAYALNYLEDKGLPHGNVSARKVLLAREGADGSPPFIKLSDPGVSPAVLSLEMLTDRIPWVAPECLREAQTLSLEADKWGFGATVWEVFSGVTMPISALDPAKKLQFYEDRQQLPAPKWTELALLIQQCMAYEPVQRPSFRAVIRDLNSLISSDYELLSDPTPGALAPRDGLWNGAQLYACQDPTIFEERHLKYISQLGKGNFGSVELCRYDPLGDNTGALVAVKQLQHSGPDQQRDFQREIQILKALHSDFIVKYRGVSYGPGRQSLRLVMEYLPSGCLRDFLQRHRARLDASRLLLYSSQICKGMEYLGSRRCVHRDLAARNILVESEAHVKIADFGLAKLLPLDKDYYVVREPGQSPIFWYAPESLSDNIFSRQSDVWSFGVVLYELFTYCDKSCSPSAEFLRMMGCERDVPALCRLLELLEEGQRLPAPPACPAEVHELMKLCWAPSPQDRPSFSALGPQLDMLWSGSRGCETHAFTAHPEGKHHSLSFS
In short: (§1)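 Test compounds were diluted in DMSO as an 11-point half-log series from a 600 μM top concentration (DMSO series, not final assay level). Enzyme amount and incubation time were set per enzyme prep to reach 20%-30% phosphorylation. Phosphorylated and unphosphorylated peptide were resolved by microfluidic separation.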

[3] = system: IL-15 induced P-STAT5 in human PBMC; assay: PBMC IL-15 Induced P-STAT5; format: cell-based
In short: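 Thawed human PBMC, rested in human plasma, were preincubated 15 min at 37 °C with compound (0.2% DMSO), then stimulated 15 min with IL-15 at 41 ng/mL final. After paraformaldehyde fixation and methanol permeabilisation, Alexa Fluor 647 anti-STAT5 staining overnight at 4 °C was analysed by flow cytometry on total lymphocytes.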

JAK3 enzyme [4] = molecular target: T1, JAK3 enzyme; assay: JAK Caliper Enzyme Assay at 1 mM ATP; format: biochemical
In short: as §1

[5] = human PBMC, IL-15 final 41 ng/mL, read-out: PBMC IL15_pSTAT5_IC50

IC50 (JAK3 enzyme [2]) [nM]	IC50 (JAK3 enzyme [4]) [nM]	half-life at 1 μM [1] [h]	Structure (SMILES)	Human blood stability t1/2 [1] [h]	IC50 [3, 5] [nM]	IC50 ([3]; Homo sapiens, PBMC, read-out: PBMC IL15_pSTAT5_IC50 (nM)) [nM]
7.65	1100	2.45	C=CC(=O)N1CCC(Oc2cnc3[nH]cc(-c4ncnn4C(C)C)c3n2)CC1 [Example 123]	–	3040	–
0.773	111	> 6	C=CC(=O)N1CCN(c2cnc3[nH]cc(C(=O)NC(C)COC)c3n2)CC1(C)C (racemic) [Example 148, Racemic-2-(4-acryloyl-3,3-dimethylpiperazin-1-yl)-N-(1-methoxypropan-2-yl)-5H-pyrrolo[2,3-b]pyrazine-7-carboxamide]	–	312	–
1.02	53	> 6	C=CC(=O)N1C[C@@H](Nc2cnc3[nH]cc(C(=O)N[C@@H](C)COC)c3n2)CC[C@H]1C (racemic) [Example 65, Cis-racemic-2-{[1-acryloyl-6-methylpiperidin-3-yl]amino}-N-[(2S)-1-methoxypropan-2-yl]-5H-pyrrolo[2,3-b]pyrazine-7-carboxamide]	–	585	–
0.25	56	4.32	C=CC(=O)N1CCC(Nc2cnc3[nH]cc(C(=O)NCCCC(F)(F)F)c3n2)C1 (stereo in doubt) [Example 237, 2-{[(3S)-1-acryloylpyrrolidin-3-yl]amino}-N-(4,4,4-trifluorobutyl)-5H-pyrrolo[2,3-b]pyrazine-7-carboxamide]	–	780	–
0.211	47	4.9	C=CC(=O)N1CC[C@H](Nc2cnc3[nH]cc(C(=O)NCC)c3n2)[C@@H](O)C1 (racemic) [Example 31, Trans-racemic-2-{[(3S,4S)-1-acryloyl-3-hydroxypiperidin-4-yl]amino}-N-ethyl-5H-pyrrolo[2,3-b]pyrazine-7-carboxamide]	–	3870	–
0.858	77	2.87	C=CC(=O)N1C[C@@H](Nc2ncnc3[nH]ccc23)CC[C@@H]1[C@@H](C)O (single isomer, unassigned) [Example 111]	–	537	–
0.39	57	3.37	C=CC(=O)N1CC[C@H](Nc2cnc3[nH]cc(C(=O)NCC)c3n2)[C@@H](C)C1 (single isomer, unassigned) [Example 45]	–	460	–
1.13	80	2.77	C=CC(=O)N1CC[C@H](Oc2cnc3[nH]cc(C(=O)N[C@@H](C)COC)c3n2)C[C@H]1C (single isomer, unassigned) [Example 72]	–	415	–
0.319	37	3.16	C=CC(=O)N1CC[C@@H](CNc2cnc3[nH]cc(C(=O)N[C@@H](C)COC)c3n2)C1 (single isomer, unassigned) [Example 17]	–	2560	–
0.995	177	> 6	C=CC(=O)N1C[C@@H](Nc2cnc3[nH]cc(C(=O)NCC)c3n2)CC[C@H]1C (racemic) [Example 74, Cis-racemic-2-{[1-acryloyl-6-methylpiperidin-3-yl]amino}-N-ethyl-5H-pyrrolo[2,3-b]pyrazine-7-carboxamide]	–	1180	–
1.57	109	> 6	C=CC(=O)N1CCN(c2cnc3[nH]cc(C(=O)N[C@@H]4COC[C@@H]4C4CC4)c3n2)CC1(C)C [Example 139, 2-(4-acryloyl-3,3-dimethylpiperazin-1-yl)-N-[(3S,4R)-4-cyclopropyltetrahydrofuran-3-yl]-5H-pyrrolo[2,3-b]pyrazine-7-carboxamide]	–	711	–
2.93	212	2.65	C=CC(=O)N1CCCC(Oc2cnc3[nH]cc(C(=O)N[C@@H](C)COC)c3n2)C1 (mixture of isomers) [Example 51, Racemic-2-[(1-acryloylpiperidin-3-yl)oxy]-N-[(2S)-1-methoxypropan-2-yl]-5H-pyrrolo[2,3-b]pyrazine-7-carboxamide]	–	999	–
0.304	37	5.78	C=CC(=O)N1CC[C@H](Nc2cnc3[nH]cc(C(=O)NCCC(F)(F)F)c3n2)C1 [Example 235, 2-{[(3S)-1-acryloylpyrrolidin-3-yl]amino}-N-(3,3,3-trifluoropropyl)-5H-pyrrolo[2,3-b]pyrazine-7-carboxamide]	–	208	–
1.09	91	> 6	C=CC(=O)N1CCC[C@H](Oc2cnc3[nH]cc(C(=O)N[C@@H](C)COC)c3n2)C1 [Example 50, 2-{[(3S)-1-acryloylpiperidin-3-yl]oxy}-N-[(2S)-1-methoxypropan-2-yl]-5H-pyrrolo[2,3-b]pyrazine-7-carboxamide]	–	431	–
1.26	152	1.76	C=CC(=O)N1C[C@@H](CO)C[C@@H](Nc2ncnc3[nH]ccc23)C1 (single isomer, unassigned) [Example 98]	–	932	–
1.6	316	> 6	C=CC(=O)N1C[C@@H](Nc2cnc3[nH]cc(C(=O)NCC)c3n2)CC[C@H]1C (single isomer, unassigned) [Example 75]	–	2280	–
0.491	96	> 6	C=CC(=O)N1CC[C@H](CNc2cnc3[nH]cc(C(=O)N[C@@H](C)COC)c3n2)C1 (single isomer, unassigned) [Example 18]	–	5990	–
0.23	34	3.47	C=CC(=O)N1CC[C@@H](Nc2cnc3[nH]cc(C(=O)NCC)c3n2)[C@H](O)C1 (single isomer, unassigned) [Example 33]	–	2810	–

Structure (SMILES)	IC50 (JAK3 enzyme [2]) [nM]	IC50 (JAK3 enzyme [4]) [nM]	half-life at 1 μM [1] [h]	Human blood stability t1/2 [1] [h]	IC50 [3, 5] [nM]	IC50 ([3]; Homo sapiens, PBMC, read-out: PBMC IL15_pSTAT5_IC50 (nM)) [nM]
C=CC(=O)N1C[C@@H](COCCC#N)C[C@@H](Nc2ncnc3[nH]ccc23)C1 (single isomer, unassigned) [Example 100]	76.3	2660	–	3.52	> 10000	–
C=CC(=O)N1CC(Nc2ncnc3[nH]ccc23)CCC1[C@@H](C)O (mixture of isomers) [Example 109]	0.713	155	–	2.20175	320	–
C=CC(=O)N1CC[C@@H](Nc2cnc3[nH]cc(C(=O)N[C@H](C)COC)c3n2)C[C@H]1C (single isomer, unassigned) [Example 58]	2.77	282	> 6	–	–	4740
C=CC(=O)N1CC[C@H](Nc2cnc3[nH]cc(C(=O)N[C@@H](C)COC)c3n2)C[C@@H]1C (racemic) [Example 353, 2-(((2S,4S)-1-Acryloyl-2-methylpiperidin-4-yl)amino)-N—((S)-1-methoxypropan-2-yl)-5H-pyrrolo[2,3-b]pyrazine-7-carboxamide]	1.48	123	> 6	–	2200	–
